Reference: ChEMBL document CHEMBL1949526, “Cyclic hydroxyamidines as amide isosteres: discovery of oxadiazolines and oxadiazines as potent and highly efficacious γ-secretase modulators in vivo” (J Med Chem, 2012)

Columns and labels:
[1] = Clearance in rat at 3 mg/kg, iv; format: ADME, organism-based; parameters: dose 3 mg/kg, route intravenous; conditions: in vivo
Rattus norvegicus [2] = experiment: Antialzheimer activity in CD rat assessed as reduction in amyloid beta42 level in plasma at 3 mg/kg, po after 3 hrs by alphaLISA analysis; format: functional; parameters: scale not given: the % may be the effect or the level left
Gamma-secretase [3] = experiment: Modulation of gamma-secretase-mediated cleavage of human APP Swedish and London mutation expressed in HEK293 cells assessed as inhibition of amyloid beta40 production after 5 hrs by sandwich immunoassay; format: cell-based
[4] = Efflux ratio of permeability from basolateral to apical side over apical to basolateral side in human Caco2 cells; format: ADME, cell-based; conditions: Caco-2
Cynomolgus monkey [5] = experiment: Antialzheimer activity in cynomolgus monkey assessed as reduction in amyloid beta42 level in cortex at 30 mg/kg, po after 4 hrs by alphaLISA analysis; format: functional, Macaca fascicularis; parameters: scale not given: the % may be the effect or the level left
Rattus norvegicus [6] = organism: Rattus norvegicus; experiment: Toxicity in rat assessed as effect on adipsin expression in jejunum at highest tolerable dose; format: organism-based; conditions: in vivo
[7] = Ratio of drug level in brain to plasma in CD rat at 3 mg/kg, po after 3 hrs; format: ADME, organism-based; parameters: dose 3 mg/kg, route oral; conditions: read-out: BPR
[8] = Oral bioavailability in dog at 10 mg/kg; format: ADME, organism-based, Canis lupus familiaris; conditions: in vivo
[9] = AUC in monkey at 10 mg/kg, po; format: ADME, organism-based, Macaca mulatta; parameters: dose 10 mg/kg, route oral; conditions: rhesus monkey, plasma
[10] = Clearance in monkey at 3 mg/kg, iv; format: ADME, organism-based, Macaca mulatta; parameters: dose 3 mg/kg, route intravenous; conditions: rhesus monkey, in vivo
[11] = Half life in dog at 3 mg/kg, iv; format: ADME, organism-based, Canis lupus familiaris; parameters: dose 3 mg/kg, route intravenous; conditions: in vivo
[12] = AUC in rat at 10 mg/kg, po; format: ADME, organism-based, Plasma; parameters: dose 10 mg/kg, route oral; conditions: plasma
[13] = Cmax in dog at 10 mg/kg, po; format: ADME, organism-based, Canis lupus familiaris; parameters: dose 10 mg/kg, route oral; conditions: in vivo
Rattus norvegicus [14] = experiment: Antialzheimer activity in CD rat assessed as reduction in amyloid beta42 level in CSF at 3 mg/kg, po after 3 hrs by alphaLISA analysis; format: functional; parameters: scale not given: the % may be the effect or the level left
[15] = Cmax in monkey at 10 mg/kg, po; format: ADME, organism-based, Macaca mulatta; parameters: dose 10 mg/kg, route oral; conditions: rhesus monkey, in vivo
[16] = Oral bioavailability in monkey at 10 mg/kg; format: ADME, organism-based, Macaca mulatta; conditions: rhesus monkey, in vivo
[17] = Plasma concentration in cynomolgus monkey at 30 mg/kg, po after 4 hrs; format: ADME, organism-based, Macaca fascicularis; parameters: dose 30 mg/kg, route oral
Cynomolgus monkey [18] = experiment: Antialzheimer activity in cynomolgus monkey assessed as reduction in amyloid beta42 level in CSF at 30 mg/kg, po after 4 hrs by alphaLISA analysis; format: functional, Macaca fascicularis; parameters: scale not given: the % may be the effect or the level left
[19] = AUC in dog at 10 mg/kg, po; format: ADME, organism-based, Canis lupus familiaris, Plasma; parameters: dose 10 mg/kg, route oral; conditions: plasma
[20] = Clearance in dog at 3 mg/kg, iv; format: ADME, organism-based, Canis lupus familiaris; parameters: dose 3 mg/kg, route intravenous; conditions: in vivo
Rattus norvegicus [21] = experiment: Antialzheimer activity in CD rat assessed as reduction in total amyloid beta level in CSF at 3 mg/kg, po after 3 hrs by alphaLISA analysis; format: functional; parameters: scale not given: the % may be the effect or the level left
[22] = Half life in monkey at 3 mg/kg, iv; format: ADME, organism-based, Macaca mulatta; parameters: dose 3 mg/kg, route intravenous; conditions: rhesus monkey, in vivo
[23] = Dissociation constant, pKa of the compound; format: physicochemical
Rattus norvegicus [24] = experiment: Antialzheimer activity in CD rat assessed as reduction in total amyloid beta level in plasma at 3 mg/kg, po after 3 hrs by alphaLISA analysis; format: functional; parameters: scale not given: the % may be the effect or the level left
[25] = Volume of distribution at steady state in dog at 3 mg/kg, iv; format: ADME, organism-based, Canis lupus familiaris; parameters: dose 3 mg/kg, route intravenous; conditions: in vivo, read-out: Vdss
Rattus norvegicus [26] = organism: Rattus norvegicus; experiment: Toxicity in rat assessed as decrease in body weight at highest tolerable dose; format: organism-based; conditions: in vivo
Rattus norvegicus [27] = experiment: Antialzheimer activity in CD rat assessed as reduction in amyloid beta40 level in plasma at 3 mg/kg, po after 3 hrs by alphaLISA analysis; format: functional; parameters: scale not given: the % may be the effect or the level left
[28] = Cmax in rat at 10 mg/kg, po; format: ADME, organism-based; parameters: dose 10 mg/kg, route oral; conditions: in vivo
[29] = Volume of distribution at steady state in monkey at 3 mg/kg, iv; format: ADME, organism-based, Macaca mulatta; parameters: dose 3 mg/kg, route intravenous; conditions: rhesus monkey, in vivo, read-out: Vdss
[30] = Volume of distribution at steady state in rat at 3 mg/kg, iv; format: ADME, organism-based; parameters: dose 3 mg/kg, route intravenous; conditions: in vivo, read-out: Vdss
Gamma-secretase [31] = experiment: Modulation of gamma-secretase-mediated cleavage of human APP Swedish and London mutation expressed in HEK293 cells assessed as inhibition of amyloid beta42 production after 5 hrs by sandwich immunoassay; format: cell-based
Rattus norvegicus [32] = experiment: Antialzheimer activity in CD rat assessed as reduction in amyloid beta42 level in cortex at 3 mg/kg, po after 3 hrs by alphaLISA analysis; format: functional; parameters: scale not given: the % may be the effect or the level left
[33] = Ratio of drug level in brain to plasma in cynomolgus monkey at 30 mg/kg, po after 4 hrs; format: ADME, organism-based, Macaca fascicularis; parameters: dose 30 mg/kg, route oral; conditions: read-out: BPR
Rattus norvegicus [34] = organism: Rattus norvegicus; experiment: Toxicity in rat assessed as effect on HES-1 expression in jejunum at highest tolerable dose; format: organism-based; conditions: in vivo
Rattus norvegicus [35] = organism: Rattus norvegicus; experiment: Toxicity in rat assessed as production of goblet cell meta/hyperplasia in ileum at highest tolerable dose; format: organism-based; conditions: in vivo
Rattus norvegicus [36] = organism: Rattus norvegicus; experiment: Toxicity in rat assessed as decrease in thymus size at highest tolerable dose; format: organism-based; conditions: in vivo
Gamma-secretase [37] = experiment: Modulation of gamma-secretase-mediated cleavage of human APP Swedish and London mutation expressed in HEK293 cells assessed as reduction of total amyloid beta level after 5 hrs by sandwich immunoassay; format: cell-based
Gamma-secretase [38] = experiment: Modulation of gamma-secretase-mediated notch signaling in HEK293 cells transfected with human APP Swedish and London mutation and Notch1 with truncated extracellular EGF repeat domain assessed as production of notch intracellular domain by MSD-based sandwich immunoassay; format: cell-based
Rattus norvegicus [39] = experiment: Antialzheimer activity in CD rat assessed as reduction in amyloid beta40 level in cortex at 3 mg/kg, po after 3 hrs by alphaLISA analysis; format: functional; parameters: scale not given: the % may be the effect or the level left
[40] = Permeability from apical to basolateral side of human Caco2 cells; format: ADME, cell-based; conditions: Caco-2, read-out: permeability
[41] = target: Voltage-gated inwardly rectifying potassium channel KCNH2 (Homo sapiens, UniProt Q12809); experiment: Inhibition of human ERG by cell based voltage clamp assay
Sequence of Voltage-gated inwardly rectifying potassium channel KCNH2 (Q12809 whole entry): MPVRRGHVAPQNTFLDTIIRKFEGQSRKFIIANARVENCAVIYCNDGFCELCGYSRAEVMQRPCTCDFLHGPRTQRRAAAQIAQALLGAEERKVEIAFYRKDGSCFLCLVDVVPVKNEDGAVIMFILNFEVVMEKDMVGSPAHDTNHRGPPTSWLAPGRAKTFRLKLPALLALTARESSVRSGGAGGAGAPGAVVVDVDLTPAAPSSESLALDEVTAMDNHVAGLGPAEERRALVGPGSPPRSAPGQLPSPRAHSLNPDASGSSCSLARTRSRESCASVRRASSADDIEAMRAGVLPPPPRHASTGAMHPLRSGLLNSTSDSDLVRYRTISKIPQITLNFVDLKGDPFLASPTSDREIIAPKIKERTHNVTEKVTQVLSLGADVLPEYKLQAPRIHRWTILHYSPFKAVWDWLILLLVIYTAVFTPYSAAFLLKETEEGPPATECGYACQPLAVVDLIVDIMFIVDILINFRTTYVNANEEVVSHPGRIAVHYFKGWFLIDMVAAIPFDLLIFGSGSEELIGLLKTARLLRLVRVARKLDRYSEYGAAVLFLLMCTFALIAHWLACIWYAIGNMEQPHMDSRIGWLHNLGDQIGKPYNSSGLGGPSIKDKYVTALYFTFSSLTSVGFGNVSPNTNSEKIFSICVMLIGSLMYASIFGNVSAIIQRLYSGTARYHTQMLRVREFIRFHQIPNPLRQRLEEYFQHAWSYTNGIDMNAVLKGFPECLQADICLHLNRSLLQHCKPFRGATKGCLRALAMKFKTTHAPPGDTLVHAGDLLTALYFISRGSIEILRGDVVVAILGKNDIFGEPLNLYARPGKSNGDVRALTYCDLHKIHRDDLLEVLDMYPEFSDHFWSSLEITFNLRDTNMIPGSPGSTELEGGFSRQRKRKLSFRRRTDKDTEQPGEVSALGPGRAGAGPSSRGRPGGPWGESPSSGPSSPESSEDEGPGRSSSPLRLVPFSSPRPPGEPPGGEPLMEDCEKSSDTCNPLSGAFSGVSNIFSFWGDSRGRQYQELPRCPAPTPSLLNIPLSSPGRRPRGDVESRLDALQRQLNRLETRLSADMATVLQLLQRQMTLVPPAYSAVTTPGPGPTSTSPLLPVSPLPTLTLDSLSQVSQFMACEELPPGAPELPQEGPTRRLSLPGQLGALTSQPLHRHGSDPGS

[42] = Oral bioavailability in rat at 10 mg/kg; format: ADME, organism-based; conditions: in vivo
[43] = Plasma concentration in CD rat at 3 mg/kg, po after 3 hrs; format: ADME, organism-based; parameters: dose 3 mg/kg, route oral
Rattus norvegicus [44] = experiment: Antialzheimer activity in CD rat assessed as reduction in amyloid beta40 level in CSF at 3 mg/kg, po after 3 hrs by alphaLISA analysis; format: functional; parameters: scale not given: the % may be the effect or the level left
[45] = Half life in rat at 3 mg/kg, iv; format: ADME, organism-based; parameters: dose 3 mg/kg, route intravenous; conditions: in vivo
Canis familiaris = organism: Canis familiaris; experiment: Cardiotoxicity in dog assessed as effect on electrocardiographic QTc interval at compound concentration required for pharmacological effect; format: toxicity, organism-based, Canis lupus familiaris; conditions: in vivo

COc1cc(/C=C2\CCCN3C2=NOC[C@@H]3c2cc(F)c(F)c(F)c2)ccc1-n1cnc(C)c1
clearance [1]: 1.4 mL/min/kg | Activity (Rattus norvegicus [2]): 32% | IC50 (Gamma-secretase [3]): 123 nM | efflux ratio [4]: 2 | Activity (Cynomolgus monkey [5]): 44% | Activity (Rattus norvegicus [6]): Non-toxic | Kp at 3 h [7]: 0.49 | bioavailability [8]: 69% | AUC [9]: 11 µM·h | clearance [10]: 11 mL/min/kg | half-life [11]: 48 min | AUC [12]: 265 µM·h | Cmax [13]: 7.9 µM | Activity (Rattus norvegicus [14]): 65% | Cmax [15]: 4.9 µM | bioavailability [16]: 34% | concentration at 4 h [17]: 6 µM | Activity (Cynomolgus monkey [18]): 70% | AUC [19]: 27 µM·h | clearance [20]: 9 mL/min/kg | Activity (Rattus norvegicus [21]): 88% | half-life [22]: 54 min | pKa [23]: 2.7 | Activity (Rattus norvegicus [24]): 86% | Vd [25]: 0.6 L/kg | Activity (Rattus norvegicus [26]): Non-toxic | Activity (Rattus norvegicus [27]): 50% | Cmax [28]: 19.8 µM | Vd [29]: 0.8 L/kg | Vd [30]: 0.4 L/kg | IC50 (Gamma-secretase [31]): 33 nM | Activity (Rattus norvegicus [32]): 63% | Kp at 4 h [33]: 1.4 | Activity (Rattus norvegicus [34]): Non-toxic | Activity (Rattus norvegicus [35]): Non-toxic | Activity (Rattus norvegicus [36]): Non-toxic | IC50 (Gamma-secretase [37]): > 20 µM | IC50 (Gamma-secretase [38]): > 50 µM | Activity (Rattus norvegicus [39]): 84% | Papp A→B [40]: 24.6 ×10⁻⁶ cm/s | IC50 [41]: 1000 nM | bioavailability [42]: 100% | concentration at 3 h [43]: 3000 nM | Activity (Rattus norvegicus [44]): 74% | half-life [45]: 210 min | Activity (Canis familiaris): Non-toxic
